Assay results published in DBAASP.
In brackets after ≈: the same amount, converted by molar mass.

Assays:
Assay in all cases: ≥ marks a high value that may be exact or a test limit, other limits are often not marked, values filed in µg/mL are converted to µM
[1] = test system: Bacillus subtilis ISW 1214
[2] = test system: Escherichia coli BL21
[3] = test system: Cryptococcus neoformans ATCC 34881
[4] = test system: Staphylococcus aureus ATCC 15752
[5] = test system: Salmonella typhimurium KCTC 2370
[6] = test system: Bacillus subtilis KCTC 3038
[7] = test system: Pseudomonas aeruginosa ATCC 27853
[8] = test system: Saccharomyces cerevisiae ATCC 44774
[9] = test system: Enterococcus faecalis ATCC 29212
[10] = test system: Micrococcus luteus ATCC 10240
[11] = test system: Escherichia coli ATCC 27325
[12] = test system: Candida albicans ATCC 10231
[13] = test system: Saccharomyces cerevisiae ATCC 8530
[14] = test system: Pseudomonas putida NCIM 2102
[15] = test system: Escherichia coli W160-37
[16] = test system: Staphylococcus aureus ATCC 8530
[17] = test system: Enterobacter cloacae CGMCC 1.58
[18] = test system: Staphylococcus epidermidis CICC 23664
[19] = test system: Proteus mirabilis CICC 22931
[20] = test system: Enterococcus faecium CGMCC 1.2334
[21] = test system: Pseudomonas aeruginosa CGMCC 1.860
[22] = test system: Staphylococcus epidermidis
[23] = test system: Bacillus cereus AS1.126
[24] = test system: Staphylococcus aureus AS1.72
[25] = test system: Pseudomonas aeruginosa 0108
[26] = test system: Klebsiella pneumoniae subsp. pneumoniae CGMCC 1.176
[27] = test system: Enterococcus faecalis CGMCC 1.595
[28] = test system: Escherichia coli AS1.349
[29] = test system: Staphylococcus aureus ATCC 43330
[30] = test system: Staphylococcus aureus ATCC 25923
[31] = test system: Serratia sp. ATCC 39006
[32] = test system: Shigella sonnei ATCC 25931
[33] = test system: Escherichia coli ATCC 25922
[34] = test system: Staphylococcus epidermidis ATCC 12228
[35] = test system: Proteus vulgaris ATCC 49132
[36] = test system: Salmonella enterica subsp. enterica serovar Typhimurium ATCC 14028
[37] = test system: Micrococcus luteus ATCC 49732
[38] = test system: Klebsiella pneumoniae ATCC 700603
[39] = test system: Neisseria gonorrhoeae ATCC 49226
[40] = test system: Streptococcus agalactiae ATCC 12386
[41] = test system: Staphylococcus saprophyticus ATCC 15305

Structure (SMILES): CC(=O)NCC(=O)N[C@@H](Cc1c[nH]c2ccccc12)C(=O)N[C@@H](CCC(N)=O)C(=O)N[C@@H](CC(C)C)C(=O)N[C@@H](CC(C)C)C(=O)N[C@@H](C)C(=O)N[C@@H](CC(C)C)C(=O)N[C@@H](Cc1cnc[nH]1)C(=O)N[C@@H](CC(C)C)C(=O)N[C@@H](CCC(N)=O)C(=O)N[C@@H](CC(C)C)C(=O)N[C@@H](CC(C)C)C(=O)NCC(=O)N[C@@H](CC(C)C)C(=O)N[C@@H](Cc1cnc[nH]1)C(=O)N[C@@H](CC(C)C)C(=O)N[C@@H](CC(C)C)C(=O)N[C@@H](CCC(N)=O)C(=O)N[C@@H](CC(C)C)C(=O)N[C@@H](C)C(=O)N[C@@H](CC(C)C)C(=O)N[C@@H](CC(C)C)C(=O)N[C@@H](CCC(N)=O)C(=O)N[C@@H](CCCN=C(N)N)C(=O)N[C@@H](CCCN=C(N)N)C(=O)N[C@@H](CCCN=C(N)N)C(N)=O [GWQLLALHLQLLGLHLLQLALLQRRR]
- MIC [1]: ≥ 160 µM
- MIC [2]: ≥ 160 µM

Structure (SMILES): CC(C)[C@H](NC(=O)[C@H](CCCCN)NC(=O)[C@H](CCC(=O)O)NC(=O)[C@H](CCCCN)NC(=O)[C@@H](NC(=O)[C@@H](NC(=O)[C@H](CCC(N)=O)NC(=O)[C@@H](NC(=O)[C@@H](NC(=O)[C@@H]1CCCN1C(=O)[C@H](CCCN=C(N)N)NC(=O)[C@@H](NC(=O)[C@@H](NC(=O)[C@@H](N)CCCN=C(N)N)C(C)C)C(C)C)C(C)C)C(C)C)C(C)C)C(C)C)C(=O)N[C@@H](CCCN=C(N)N)C(=O)O [RVVRPVVQVVKEKVR]
- MIC [3]: ≥ 35.7 µM
- MIC [4]: ≥ 35.7 µM
- MIC [5]: ≥ 35.7 µM
- MIC [6]: ≥ 35.7 µM
- MIC [7]: > 35.7 µM
- MIC [8]: ≥ 35.7 µM
- MIC [9]: > 35.7 µM
- MIC [10]: ≥ 35.7 µM
- MIC [11]: ≥ 35.7 µM
- MIC [12]: 35.7 µM (≈ 64 µg/mL)

Structure (SMILES): CC[C@H](C)[C@@H]1NC(=O)[C@@H]2CCCN2C(=O)[C@H](CC(C)C)NC(=O)[C@@H]2CCCN2C(=O)[C@H]([C@@H](C)CC)NC(=O)[C@H](C)NC(=O)[C@H](Cc2ccc(O)cc2)NC(=O)[C@@H](NC(=O)[C@@H](NC(=O)[C@@H](N)CCCN=C(N)N)C(C)C)CSSC[C@@H](C(N)=O)NC1=O [RVCYAIPLPIC]
- MIC [13]: ≥ 80.2 µM
- MIC [14]: ≥ 48.1 µM
- MIC [15]: ≥ 48.1 µM
- MIC [16]: ≥ 40.1 µM

Structure (SMILES): CC[C@H](C)[C@H](NC(=O)[C@H](CCCCN)NC(=O)[C@H](CO)NC(=O)[C@H](Cc1c[nH]c2ccccc12)NC(=O)[C@@H](NC(=O)[C@H](CCCCN)NC(=O)[C@H](CCCCN)NC(=O)[C@@H](N)Cc1c[nH]c2ccccc12)[C@@H](C)CC)C(=O)N[C@@H](CCCCN)C(=O)N[C@@H](CCCCN)C(=O)N[C@@H](CC(C)C)C(=O)N[C@@H](CC(C)C)C(=O)N[C@@H](CCCCN)C(N)=O [WKKIWSKIKKLLK]
- MIC [17]: 3.13 µM (≈ 5.32 µg/mL)
- MIC [18]: 1.56 µM (≈ 2.65 µg/mL)
- MIC [19]: 6.25 µM (≈ 10.6 µg/mL)
- MIC [20]: 3.13 µM (≈ 5.32 µg/mL)
- MIC [21]: 6.25 µM (≈ 10.6 µg/mL)
- MIC [22]: 3.12 µM (≈ 5.3 µg/mL)
- MIC [23]: 3.13 µM (≈ 5.32 µg/mL)
- MIC [24]: 3.13 µM (≈ 5.32 µg/mL)
- MIC [25]: 12.5 µM (≈ 21.2 µg/mL)
- MIC [26]: 25 µM (≈ 42.5 µg/mL)
- MIC [27]: 1.56 µM (≈ 2.65 µg/mL)
- MIC [28]: 6.25 µM (≈ 10.6 µg/mL)

Structure (SMILES): CC[C@H](C)[C@H](NC(=O)CNC(=O)[C@H](C)NC(=O)[C@H](C)NC(=O)[C@@H](NC(=O)[C@@H](NC(=O)[C@H](CC(N)=O)NC(=O)[C@@H](NC(=O)[C@H](C)NC(=O)[C@@H](NC(=O)[C@@H]1CCCN1C(=O)[C@@H](NC(=O)[C@H](CC(C)C)NC(=O)[C@@H]1CCCN1C(=O)[C@H](Cc1c[nH]c2ccccc12)NC(=O)[C@H](Cc1ccccc1)NC(=O)[C@H](CCCN=C(N)N)NC(=O)[C@H](CCCCN)NC(=O)[C@@H](NC(=O)[C@@H](N)CCCN=C(N)N)C(C)C)C(C)C)C(C)C)[C@@H](C)CC)[C@@H](C)O)C(C)C)C(=O)N[C@@H](CC(N)=O)C(=O)N[C@@H](CC(C)C)C(=O)N[C@@H](Cc1ccc(O)cc1)C(=O)N[C@@H](CCCCN)C(=O)N[C@@H](C)C(=O)N[C@H](C(=O)N[C@@H](CCCN=C(N)N)C(=O)N[C@@H](CCCN=C(N)N)C(=O)N[C@@H](CCCCN)C(N)=O)[C@@H](C)CC [RVKRFWPLVPVAINTVAAGINLYKAIRRK]
- MIC [29]: 3.73 µM (≈ 12.5 µg/mL)
- MIC [30]: 1.22 µM (≈ 4.1 µg/mL)
- MIC [31]: 0.63 µM (≈ 2.11 µg/mL)
- MIC [32]: 0.537 µM (≈ 1.8 µg/mL)
- MIC [33]: 0.934 µM (≈ 3.13 µg/mL)
- MIC [34]: 2.49 µM (≈ 8.33 µg/mL)
- MIC [9]: 0.934 µM (≈ 3.13 µg/mL)
- MIC [35]: 2.49 µM (≈ 8.33 µg/mL)
- MIC [36]: 2.15 µM (≈ 7.21 µg/mL)
- MIC [37]: 0.63 µM (≈ 2.11 µg/mL)
- MIC [38]: 2.15 µM (≈ 7.21 µg/mL)
- MIC [39]: 2.49 µM (≈ 8.33 µg/mL)
- MIC [40]: 1.4 µM (≈ 4.7 µg/mL)
- MIC [41]: 1.22 µM (≈ 4.1 µg/mL)
